In brackets after ≈: the same amount, converted by molar mass.
Legend:
Bacillus subtilis [1] = assay: Antibacterial activity against Bacillus subtilis MTCC 121 by NCCLS broth macrodilution method; type: functional
Staphylococcus aureus [2] = assay: Antibacterial activity against Staphylococcus aureus MTCC 96 by NCCLS broth macrodilution method; type: functional
Bacillus subtilis [3] = assay: Antibacterial activity against Bacillus subtilis MTCC 121 at 4 mg/ml after 24 hr by agar well diffusion method; type: functional; conditions: MTCC 121, 24 h, read-out: DIZ
Staphylococcus aureus [4] = assay: Antibacterial activity against Staphylococcus aureus MTCC 96 at 4 mg/ml after 24 hr by agar well diffusion method; type: functional; conditions: MTCC 96, 24 h, read-out: DIZ
Pseudomonas aeruginosa = assay: microbe, parasite or virus in culture; conditions: MTCC 741, 24 h, read-out: DIZ
Rattus norvegicus [5] = assay: Anti-inflammatory activity in Rattus norvegicus Wistar albino (rat) assessed as inhibition of carrageenan-induced paw edema at 10 mg/kg, ip administered for 30 min prior to carrageenan challenge measured at 4 hr relative to control; type: functional; conditions: route intraperitoneal
Rattus norvegicus [6] = assay: Anti-inflammatory activity in Rattus norvegicus Wistar albino (rat) assessed as inhibition of carrageenan-induced paw edema at 10 mg/kg, ip administered for 30 min prior to carrageenan challenge measured at 3 hr relative to control; type: functional; conditions: route intraperitoneal
Rattus norvegicus [7] = species on record: Rattus norvegicus; assay: animal or person; conditions: Wistar albino, ip, read-out: INH
Rattus norvegicus [8] = species on record: Rattus norvegicus; assay: animal or person; conditions: Wistar albino, ip, read-out: INH; remark: listed apart in the source

Structure (SMILES) | MIC (Bacillus subtilis [1]) | MIC (Staphylococcus aureus [2]) | zone of inhibition at 4000 µg/mL (Bacillus subtilis [3]) | zone of inhibition at 4000 µg/mL (Staphylococcus aureus [4]) | zone of inhibition at 4000 µg/mL (Pseudomonas aeruginosa) | inhibition in vivo at 10 mg/kg (Rattus norvegicus [5]) | inhibition in vivo at 10 mg/kg (Rattus norvegicus [6]) | inhibition in vivo at 10 mg/kg (Rattus norvegicus [7]) | inhibition in vivo at 10 mg/kg (Rattus norvegicus [8])
O=C(O)c1cn(C2CC2)c2cc(N3CCNCC3)c(F)cc2c1=O [CIPROFLOXACIN] | 5 µg/mL (≈ 15.1 µM) | 5 µg/mL (≈ 15.1 µM) | 25.6 mm | 26.3 mm | 23.3 mm |  |  |  | 
COc1ccc2c(c1)c(CC(=O)O)c(C)n2C(=O)c1ccc(Cl)cc1 [INDOMETHACIN] |  |  |  |  |  | 78% | 78% | 79% | 41%

Source: ChEMBL document CHEMBL3046519, “Synthesis and biological evaluation of some pyrazole derivatives as anti-inflammatoryantibacterial agents” (2012)
